Measurements: ChEMBL document CHEMBL4840369, “Structure-based screening combined with computational and biochemical analyses identified the inhibitor targeting the binding of DNA Ligase 1 to UHRF1” (Bioorg Med Chem, 2021)
pKd: −log10 of the molar value. Calls of active or inactive are those of the source. No cut-off for these calls is given here.

Key:
[1] = biological target: T1, E3 ubiquitin-protein ligase UHRF1 (Homo sapiens) (UniProt Q96T88); experiment: Binding affinity to UHRF1 TTD (unknown origin) assessed as increase in thermal stability by measuring change in melting temperature by SYPRO orange dye based fluorescence assay
T1 sequence (whole entry): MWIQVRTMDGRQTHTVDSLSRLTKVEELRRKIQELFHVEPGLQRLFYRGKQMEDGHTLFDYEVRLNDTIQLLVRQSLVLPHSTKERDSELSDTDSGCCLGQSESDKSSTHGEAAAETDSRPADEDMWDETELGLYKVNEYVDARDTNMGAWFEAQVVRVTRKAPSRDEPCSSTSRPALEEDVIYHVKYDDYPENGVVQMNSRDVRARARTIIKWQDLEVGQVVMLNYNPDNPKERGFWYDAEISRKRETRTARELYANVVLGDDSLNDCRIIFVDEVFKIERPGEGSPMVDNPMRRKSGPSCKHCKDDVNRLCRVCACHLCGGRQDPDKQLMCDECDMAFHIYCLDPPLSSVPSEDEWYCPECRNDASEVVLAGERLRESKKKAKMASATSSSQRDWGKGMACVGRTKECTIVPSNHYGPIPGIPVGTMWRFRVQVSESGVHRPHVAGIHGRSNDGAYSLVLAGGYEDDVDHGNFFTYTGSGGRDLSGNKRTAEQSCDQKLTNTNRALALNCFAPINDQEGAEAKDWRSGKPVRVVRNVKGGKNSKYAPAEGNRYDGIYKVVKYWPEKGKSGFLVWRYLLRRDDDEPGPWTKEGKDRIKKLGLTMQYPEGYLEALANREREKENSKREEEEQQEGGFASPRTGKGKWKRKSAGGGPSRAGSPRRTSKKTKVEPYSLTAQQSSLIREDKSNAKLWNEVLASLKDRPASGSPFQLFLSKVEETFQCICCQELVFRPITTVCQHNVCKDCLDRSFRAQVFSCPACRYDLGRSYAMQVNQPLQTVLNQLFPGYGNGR

[2] = biological target: T2, E3 ubiquitin-protein ligase UHRF1 (Homo sapiens, UniProt Q96T88); experiment: Binding affinity to UHRF1 TTD (unknown origin) assessed as dissociation constant by ITC analysis
T2 sequence (Q96T88 whole entry): T1 sequence (whole entry)

[3] = biological target: T1, E3 ubiquitin-protein ligase UHRF1 (Homo sapiens); experiment: Binding affinity to UHRF1 TTD (unknown origin) assessed as change in enthalpy by ITC analysis
[4] = biological target: E3 ubiquitin-protein ligase UHRF1 (Homo sapiens, UniProt Q96T88, Y188A/Y191A); experiment: Binding affinity to UHRF1 Y188A/Y191A double mutant (unknown origin) assessed as dissociation constant by ITC analysis
Sequence of E3 ubiquitin-protein ligase UHRF1 (Homo sapiens, UniProt Q96T88, Y188A/Y191A) (Q96T88 whole entry Y188A/Y191A): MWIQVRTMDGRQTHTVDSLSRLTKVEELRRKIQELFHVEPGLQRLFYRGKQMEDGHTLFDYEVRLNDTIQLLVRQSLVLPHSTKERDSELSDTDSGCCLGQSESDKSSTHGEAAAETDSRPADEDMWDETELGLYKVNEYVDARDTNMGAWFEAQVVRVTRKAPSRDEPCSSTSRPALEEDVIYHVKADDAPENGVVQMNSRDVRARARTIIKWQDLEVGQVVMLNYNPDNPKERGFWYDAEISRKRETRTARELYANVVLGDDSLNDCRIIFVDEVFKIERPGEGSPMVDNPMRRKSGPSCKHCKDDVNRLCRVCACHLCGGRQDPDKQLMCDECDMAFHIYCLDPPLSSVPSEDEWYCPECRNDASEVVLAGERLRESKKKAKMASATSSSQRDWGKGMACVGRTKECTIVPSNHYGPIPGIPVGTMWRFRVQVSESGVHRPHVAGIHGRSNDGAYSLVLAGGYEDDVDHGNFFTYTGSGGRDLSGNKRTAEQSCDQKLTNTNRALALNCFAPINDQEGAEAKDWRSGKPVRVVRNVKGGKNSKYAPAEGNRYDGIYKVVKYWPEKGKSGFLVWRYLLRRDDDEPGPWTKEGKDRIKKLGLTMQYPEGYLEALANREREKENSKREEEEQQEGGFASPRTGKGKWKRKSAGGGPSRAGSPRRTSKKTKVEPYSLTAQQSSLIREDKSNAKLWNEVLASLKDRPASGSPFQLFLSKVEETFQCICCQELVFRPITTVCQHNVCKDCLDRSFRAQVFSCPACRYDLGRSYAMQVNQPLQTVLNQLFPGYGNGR

[5] = biological target: E3 ubiquitin-protein ligase UHRF1 (Homo sapiens, UniProt Q96T88); experiment: Binding affinity to UHRF1 TTD variant loop (unknown origin) assessed as dissociation constant by ITC analysis
[6] = biological target: T1, E3 ubiquitin-protein ligase UHRF1 (Homo sapiens); experiment: Displacement of FAM-labeled H3K9me3 from UHRF1 TTD(unknown origin) by fluorescence polarization assay
[7] = biological target: T1, E3 ubiquitin-protein ligase UHRF1 (Homo sapiens); experiment: Displacement of FAM-labeled LIG1K126me3 from UHRF1 TTD(unknown origin) by fluorescence polarization assay
[8] = biological target: T3, E3 ubiquitin-protein ligase UHRF1 (Xenopus laevis) (UniProt B6CHA3); experiment: Inhibition of UHRF1 TTD binding with LIG1K126me3 in Xenopus laevis eggs incubated for 1 hr by immunoprecipitation; type: tissue-based; details: Egg
T3 sequence (whole entry): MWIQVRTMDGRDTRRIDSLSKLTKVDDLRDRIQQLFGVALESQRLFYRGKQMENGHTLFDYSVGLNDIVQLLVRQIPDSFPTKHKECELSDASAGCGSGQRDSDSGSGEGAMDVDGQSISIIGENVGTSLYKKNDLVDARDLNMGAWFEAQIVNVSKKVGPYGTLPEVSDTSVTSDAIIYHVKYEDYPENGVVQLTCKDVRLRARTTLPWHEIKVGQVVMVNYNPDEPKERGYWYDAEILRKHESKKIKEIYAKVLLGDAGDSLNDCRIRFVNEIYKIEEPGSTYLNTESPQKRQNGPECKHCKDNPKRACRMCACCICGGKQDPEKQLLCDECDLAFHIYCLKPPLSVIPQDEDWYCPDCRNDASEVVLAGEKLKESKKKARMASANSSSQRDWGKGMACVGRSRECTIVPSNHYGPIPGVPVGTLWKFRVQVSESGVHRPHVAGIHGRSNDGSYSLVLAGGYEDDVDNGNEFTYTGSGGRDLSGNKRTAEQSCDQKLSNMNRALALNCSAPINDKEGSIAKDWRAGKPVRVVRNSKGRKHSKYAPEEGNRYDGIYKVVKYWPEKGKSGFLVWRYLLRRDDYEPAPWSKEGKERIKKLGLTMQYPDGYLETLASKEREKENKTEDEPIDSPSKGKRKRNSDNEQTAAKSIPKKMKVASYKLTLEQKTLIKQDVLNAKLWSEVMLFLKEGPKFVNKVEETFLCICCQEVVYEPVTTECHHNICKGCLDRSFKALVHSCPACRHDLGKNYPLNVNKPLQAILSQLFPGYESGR

[9] = biological target: T1, E3 ubiquitin-protein ligase UHRF1 (Homo sapiens); experiment: Binding affinity to UHRF1 TTD (unknown origin) assessed as compound-protein complex stoichiometry ratio of 1:1 by ITC analysis
[10] = biological target: E3 ubiquitin-protein ligase UHRF1 (Homo sapiens, UniProt Q96T88, M224A); experiment: Binding affinity to UHRF1 M224A mutant (unknown origin) assessed as dissociation constant by ITC analysis
Sequence of E3 ubiquitin-protein ligase UHRF1 (Homo sapiens, UniProt Q96T88, M224A) (Q96T88 whole entry M224A): as the sequence (Q96T88 whole entry Y188A/Y191A) above, with A188Y, A191Y, M224A counted along it

[11] = biological target: E3 ubiquitin-protein ligase UHRF1 (Homo sapiens, UniProt Q96T88, F278A); experiment: Binding affinity to UHRF1 F278A mutant (unknown origin) assessed as dissociation constant by ITC analysis
Sequence of E3 ubiquitin-protein ligase UHRF1 (Homo sapiens, UniProt Q96T88, F278A) (Q96T88 whole entry F278A): as the sequence (Q96T88 whole entry Y188A/Y191A) above, with A188Y, A191Y, F278A counted along it

[12] = biological target: T1, E3 ubiquitin-protein ligase UHRF1 (Homo sapiens); experiment: Binding affinity to UHRF1 TTD (unknown origin) assessed as increase in thermal stability by melting temperature by SYPRO orange dye based fluorescence assay (reference value: 46.5 +/- 0.1 degreeC)

Structure (SMILES): Cc1cc(C)c(N)cn1
- deltaT [1]: 3.1 °C
- pKd [2]: 4.71
- deltaH [3]: -8.5 kcal/mol
- pKd [4]: 4.49
- pKd [5]: 4.68
- INH [6]: 249 µM
- INH [7]: 806 µM
- inhibition [8]: Dose-Dependent Effect
- Activity [9]: Active
- pKd [10]: < 3.95
- pKd [11]: < 3.74
- Tm [12]: 49.6 °C
